Measurements taken from ChEMBL document CHEMBL3621115, “Discovery of 6-phenylimidazo[2,1-b]thiazole derivatives as a new type of FLT3 inhibitors” (Bioorg Med Chem Lett, 2015).

Assays:
HeLa = assay: Cytotoxicity against human HeLa cells assessed as cell viability after 72 hrs by MTT assay; type: functional, cell-based
MV4-11 = assay: Cytotoxicity against human MV4-11 cells assessed as cell viability after 72 hrs by MTT assay; type: functional, cell-based; details: MV4-11, 72 h
[1] = target: T1, Receptor-type tyrosine-protein kinase FLT3 (Homo sapiens, UniProt P36888); assay: Inhibition of human recombinant Flt3
T1 sequence (P36888 whole entry): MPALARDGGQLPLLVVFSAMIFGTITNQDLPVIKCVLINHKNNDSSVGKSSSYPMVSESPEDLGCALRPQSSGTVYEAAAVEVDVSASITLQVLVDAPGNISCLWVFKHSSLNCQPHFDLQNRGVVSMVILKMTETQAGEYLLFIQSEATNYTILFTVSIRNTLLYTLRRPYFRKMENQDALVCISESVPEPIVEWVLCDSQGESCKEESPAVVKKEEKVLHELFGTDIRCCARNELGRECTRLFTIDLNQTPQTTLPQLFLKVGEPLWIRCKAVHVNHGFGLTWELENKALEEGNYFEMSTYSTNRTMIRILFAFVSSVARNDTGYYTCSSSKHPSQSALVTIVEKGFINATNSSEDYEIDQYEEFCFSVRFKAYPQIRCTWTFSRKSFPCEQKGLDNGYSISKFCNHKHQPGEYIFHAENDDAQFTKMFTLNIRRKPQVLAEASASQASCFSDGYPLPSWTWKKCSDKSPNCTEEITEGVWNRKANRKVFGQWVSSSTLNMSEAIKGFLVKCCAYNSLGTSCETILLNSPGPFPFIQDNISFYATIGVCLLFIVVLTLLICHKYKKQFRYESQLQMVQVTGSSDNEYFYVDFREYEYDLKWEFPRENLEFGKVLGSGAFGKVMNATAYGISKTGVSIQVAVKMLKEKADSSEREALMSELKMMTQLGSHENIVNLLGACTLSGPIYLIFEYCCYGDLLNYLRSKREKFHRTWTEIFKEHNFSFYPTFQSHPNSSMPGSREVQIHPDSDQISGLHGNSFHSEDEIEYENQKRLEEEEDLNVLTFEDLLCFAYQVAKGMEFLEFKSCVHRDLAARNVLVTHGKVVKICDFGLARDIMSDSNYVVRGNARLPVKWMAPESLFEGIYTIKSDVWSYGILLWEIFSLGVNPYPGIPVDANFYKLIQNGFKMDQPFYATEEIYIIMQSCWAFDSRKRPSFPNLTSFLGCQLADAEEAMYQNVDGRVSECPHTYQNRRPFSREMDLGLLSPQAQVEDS

IC50 [1] [µM]	SMILES	IC50 (HeLa) [µM]	IC50 (MV4-11) [µM]
–	CCOC(=O)c1csc2nc(-c3ccc(NC(=O)c4ccco4)cc3)cn12	> 20	9.92
–	CCOC(=O)c1csc2nc(-c3ccc(NC(=O)Nc4ccccc4)cc3)cn12	> 20	> 20
–	CCOC(=O)c1csc2nc(-c3ccc(NC(=O)CCl)cc3)cn12	> 20	9.07
–	CC(C)(C)c1cc(NC(=O)Nc2ccc(-c3cn4c(C(=O)OCCN5CCOCC5)csc4n3)cc2)no1	> 20	0.146
0.095	CC(C)(C)c1cc(NC(=O)Nc2ccc(-c3cn4c(C(=O)NCCS(C)(=O)=O)csc4n3)cc2)no1	> 20	0.0049
–	CCOC(=O)c1csc2nc(-c3cccc(NC(=O)CC)c3)cn12	> 20	> 20
–	CC(C)(C)c1cc(NC(=O)Nc2ccc(-c3cn4c(C(=O)NCCN5CCOCC5)csc4n3)cc2)no1	> 20	0.0163
–	C=CC(=O)Nc1ccc(-c2cn3c(C(=O)OCC)csc3n2)cc1	> 20	2.93
–	C=CC(=O)Nc1cccc(-c2cn3c(C(=O)OCC)csc3n2)c1	> 20	> 20
–	CCOC(=O)c1csc2nc(-c3ccc(NC(=O)CC)cc3)cn12	> 20	9.52
–	CCOC(=O)c1csc2nc(-c3cccc(NC(=O)c4ccco4)c3)cn12	> 20	> 20
0.022	CN(C)CCNC(=O)c1csc2nc(-c3ccc(NC(=O)Nc4cc(C(C)(C)C)on4)cc3)cn12	20	0.0097
–	CCOC(=O)c1csc2nc(-c3cccc(NC(=O)CCl)c3)cn12	20	17.7
–	CCCS(=O)(=O)Nc1ccc(-c2cn3c(C(=O)OCC)csc3n2)cc1	> 20	> 20
–	CCOC(=O)c1csc2nc(-c3ccc(NC(=O)Nc4ccc(Br)cn4)cc3)cn12	> 20	2.44
–	CC(C)(C)c1cc(NC(=O)Nc2ccc(-c3cn4c(C(=O)NCCO)csc4n3)cc2)no1	> 20	0.0156
–	CCOC(=O)c1csc2nc(-c3ccc(NS(=O)(=O)c4ccc(C)cc4)cc3)cn12	> 20	> 20
–	CCOC(=O)c1csc2nc(-c3ccc(NC(=O)Nc4cc(C(C)(C)C)on4)cc3)cn12	> 20	0.274
–	CNC(=O)c1cc(Oc2ccc(NC(=O)Nc3ccc(Cl)c(C(F)(F)F)c3)cc2)ccn1 [SORAFENIB]	5.23	0.007
